Data: patent US20250257051A1, “SUBSTITUTED PYRIMIDINE COMPOUNDS AS TYK2 INHIBITORS” (1910 Genetics Inc., priority 2022, published 2025)
Counter-ions that a name gives are not always drawn.

Biological target: human TYK2 (JH2domain-pseudokinase) (Homo sapiens (Human), UniProt P29597)
Test: TYK2 JH2 Domain Binding Assay (KINOMEscan competition binding)
Settings: KINOMEscan; 11-point 3-fold dilution, top concentration 30,000 nM; Kd measurements in duplicate; read-out: TYK JH2 (Kd)
Procedure: Binding constants for compounds disclosed herein may be determined by the KINOMEscan® assay developed by DiscoveRx. KINOMEscan® is based on a competition binding assay that quantitatively measures the ability of a compound to compete with an immobilized, active-site directed ligand. The assay is performed by combining three components: DNA-tagged kinase; immobilized ligand; and a test compound. The ability of the test compound to compete with the immobilized ligand is measure via quantitative PCR of the DNA tag.
Binding constants for compounds disclosed herein against the JH2 domain are determined by the following protocol for a KINOMEscan® assay (DiscoveRx). A fusion protein of a partial length construct of human TYK2 (JH2domain-pseudokinase) (amino acids G556 to D888 based on reference sequence NP 003322.3) and the DNA binding domain of NFkB is expressed in transiently transfected HEK293 cells. From these HEK 293 cells, extracts are prepared in M-PER extraction buffer (Pierce) in the presence of Protease Inhibitor Cocktail Complete (Roche) and Phosphatase Inhibitor Cocktail Set II (Merck) per manufacturers' instructions. The TYK2 (JH2domain-pseudokinase) fusion protein is labeled with a chimeric double-stranded DNA tag containing the NFkB binding site (5′-GGGAATTCCC-3′) fused to an amplicon for qPCR readout, which is added directly to the expression extract (the final concentration of DNA-tag in the binding reaction is 0.1 nM).
Streptavidin-coated magnetic beads (Dynal M280) are treated with a biotinylated small molecule ligand for 30 minutes at room temperature to generate affinity resins for the binding assays. The liganded beads are blocked with excess biotin and washed with blocking buffer (SeaBlock (Pierce), 1% BSA, 0.05% Tween 20, 1 mM DTT) to remove unbound ligand and to reduce nonspecific binding.
Extracts are used directly in binding assays without any enzyme purification steps at a >10,000-fold overall stock dilution (final DNA tagged enzyme concentration<0.1 nM). Extracts are loaded with DNA-tag and diluted into the binding reaction in a two-step process. First extracts are diluted 1:100 in 1× binding buffer (PBS/0.05% Tween 20/10 mM DTT/0.1% BSA/[…] sonicated salmon sperm DNA) containing 10 nM DNA-tag. This dilution is allowed to equilibrate at room temperature for 15 minutes and then subsequently diluted 1:100 in 1× binding buffer. Test compounds are prepared as 111× stocks in 100% DMSO. Kds are determined using an 11-point 3-fold compound dilution series with three DMSO control points. All compounds for Kd measurements are distributed by acoustic transfer (non-contact dispensing) in 100% DMSO. The compounds are then diluted directly into the assays such that the final concentration of DMSO is 0.9%. All reactions performed in polypropylene 384-well plates. Each is a final volume of 0.02 mL. Assays are incubated with shaking for 1 hour at room temperature. Then the beads are pelleted and washed with wash buffer (lx PBS, 0.05% Tween 20) to remove displaced kinase and test compound. The washed beads are re-suspended in elution buffer (lx PBS, 0.05% Tween 20, 0.5 μM non-biotinylated affinity ligand) and incubated at room temperature with shaking for 30 minutes. The kinase concentration in the eluates is measured by qPCR. qPCR reactions are assembled by adding 2.5 μL of kinase eluate to 7.5 μL of qPCR master mix containing 0.15 μM amplicon primers and 0.15 μM amplicon probe. The qPCR protocol consists of a 10-minute hot start at 95° C., followed by 35 cycles of 95° C. for 15 seconds, 60° C. for 1 minute.
Test compounds are prepared as 111× stocks in 100% DMSO. Kds are determined using an 11-point 3-fold compound dilution series with three DMSO control points. All compounds for Kd measurements are distributed by acoustic transfer (non-contact dispensing) in 100% DMSO. The compounds are then diluted directly into the assays such that the final concentration of DMSO is 0.9%. […]

human TYK2 (JH2domain-pseudokinase), sequence (P29597 556-888): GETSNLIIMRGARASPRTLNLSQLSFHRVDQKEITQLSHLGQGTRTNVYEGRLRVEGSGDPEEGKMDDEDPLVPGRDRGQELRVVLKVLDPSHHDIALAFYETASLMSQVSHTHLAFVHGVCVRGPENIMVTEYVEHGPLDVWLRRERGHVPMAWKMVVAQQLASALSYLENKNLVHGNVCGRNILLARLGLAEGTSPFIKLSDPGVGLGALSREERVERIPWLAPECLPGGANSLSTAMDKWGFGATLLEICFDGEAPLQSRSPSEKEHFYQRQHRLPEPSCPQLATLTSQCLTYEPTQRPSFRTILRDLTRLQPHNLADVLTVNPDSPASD

SMILES | Kd
CNC(=O)c1cnc(N2CCN(C(=O)OC(C)(C)C)CC2C)nc1Nc1cccc(-c2ncc(F)cn2)c1OC (centres unmarked) [Compound 26, Tert-Butyl 4-(4-((3-(5-fluoropyrimidin-2-yl)-2-methoxyphenyl)amino)-5-(methylcarbamoyl)pyrimidin-2-yl)-3-methylpiperazine-1-carboxylate] | 190 nM
CNC(=O)c1cnc(N2CCCNCC2)nc1Nc1ccccc1OC [Compound 29, 2-(1,4-diazepan-1-yl)-4-((2-methoxyphenyl)amino)-N-methylpyrimidine-5-carboxamide] | 4600 nM
CNC(=O)c1cnc(N2CCCN(C(=O)OC(C)(C)C)CC2)nc1Nc1ccccc1OC [Compound 30, Tert-Butyl 4-(4-((2-methoxyphenyl)amino)-5-(methylcarbamoyl)pyrimidin-2-yl)-1,4-diazepane-1-carboxylate] | 44000 nM
CNC(=O)c1cnc(N2CCNCC2C)nc1Nc1ccccc1OC (centres unmarked) [Compound 31, 4-((2-methoxyphenyl)amino)-N-methyl-2-(2-methylpiperazin-1-yl)pyrimidine-5-carboxamide Hydrochloride] | 4800 nM
CNC(=O)c1cnc(N2CCN(C(=O)OC(C)(C)C)CC2C)nc1Nc1ccccc1OC (centres unmarked) [Compound 32, Tert-Butyl 4-(4-((2-methoxyphenyl)amino)-5-(methylcarbamoyl)pyrimidin-2-yl)-3-methylpiperazine-1-carboxylate] | 17000 nM
CNC(=O)c1cnc(N2CCC(C(=O)O)CC2)nc1Nc1ccccc1OC [Compound 33, 1-(4-((2-methoxyphenyl)amino)-5-(methylcarbamoyl)pyrimidin-2-yl)piperidine-4-carboxylic Acid] | 710 nM
CCOC(=O)C1CCN(c2ncc(C(=O)NC)c(Nc3ccccc3OC)n2)CC1 [Compound 34, Ethyl 1-(4-((2-methoxyphenyl)amino)-5-(methylcarbamoyl)pyrimidin-2-yl)piperidine-4-carboxylate] | 760 nM
NC(=O)c1cnc(N2CCC(C(=O)O)CC2)nc1Nc1ccc(C2CC2)nc1 [Compound 35, 1-(5-carbamoyl-4-((6-cyclopropylpyridin-3-yl)amino)pyrimidin-2-yl)piperidine-4-carboxylic acid] | 710 nM
CCOC(=O)C1CCN(c2ncc(C(N)=O)c(Nc3ccc(C4CC4)nc3)n2)CC1 [Compound 36, Ethyl 1-(5-carbamoyl-4-((6-cyclopropylpyridin-3-yl)amino)pyrimidin-2-yl)piperidine-4-carboxylate] | 660 nM

Now those with a lower Kd, led by results:

Kd | SMILES
36 nM | CNC(=O)c1cnc(N2CCC(C(=O)O)CC2)nc1Nc1cccc(-c2ncc(F)cn2)c1OC [Compound 27, 1-(4-((3-(5-fluoropyrimidin-2-yl)-2-methoxyphenyl)amino)-5-(methylcarbamoyl)pyrimidin-2-yl)piperidine-4-carboxylic acid]
2.3 nM | CCOC(=O)C1CCN(c2ncc(C(=O)NC)c(Nc3cccc(-c4ncc(F)cn4)c3OC)n2)CC1 [Compound 28, Ethyl 1-(4-((3-(5-fluoropyrimidin-2-yl)-2-methoxyphenyl)amino)-5-(methylcarbamoyl)pyrimidin-2-yl)piperidine-4-carboxylate]
34 nM | COc1c(Nc2nc(N3CCN(C(=O)OC(C)(C)C)CC3C)ncc2C(N)=O)cccc1-c1ncc(F)cn1 (centres unmarked) [Compound 37, Tert-Butyl 4-(5-carbamoyl-4-((3-(5-fluoropyrimidin-2-yl)-2-methoxyphenyl)amino)pyrimidin-2-yl)-3-methylpiperazine-1-carboxylate]
7.8 nM | COc1c(Nc2nc(N3CCC(C(=O)O)CC3)ncc2C(N)=O)cccc1-c1ncc(F)cn1 [Compound 38, 1-(5-carbamoyl-4-((3-(5-fluoropyrimidin-2-yl)-2-methoxyphenyl)amino)pyrimidin-2-yl)piperidine-4-carboxylic Acid]
0.82 nM | CCOC(=O)C1CCN(c2ncc(C(N)=O)c(Nc3cccc(-c4ncc(F)cn4)c3OC)n2)CC1 [Compound 39, Ethyl 1-(5-carbamoyl-4-((3-(5-fluoropyrimidin-2-yl)-2-methoxyphenyl)amino)pyrimidin-2-yl)piperidine-4-carboxylate]
